Measured values: patent US20050107289A1, “Anti-microbial peptides and compositions” (priority 2001, published 2005)
Like-named read-outs stand apart in the source and are kept apart here. Non-standard residues stand in square brackets, D forms with d. Residues, ends and D or L forms follow the SMILES beside them.

What was measured:
murine red blood cells = experiment: Red blood cell hemolysis; assay type: cell-based, mouse; details: for Hemolysis HD50: red cells of murine
Procedure, shortened: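 Washed murine erythrocytes at 5% in saline with 10% FBS were exposed to serial peptide dilutions for 30 min at 37° C. Supernatant absorbance at 560 nm was read, with saline as 0% and 1% Triton X-100 as 100% hemolysis.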

[1] = system: vancomycin-resistant Enterococus faecalis (VRE)(ATCC 51575); assay type: cell-based, Enterococcus faecalis; design: key to VRE (in vitro activity): peptide concentration in μg/ml (broth dilution assay); details: for VRE MIC: ATCC 51575; for VRE (in vitro activity): Table 9
Procedure, shortened: (§1)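 Peptide activity was measured by NCCLS M7-A4 broth dilution, mostly as microdilution with some macrodilution. Serial 2-fold dilutions, approximately 400-2 μg/ml stock range, were made in 5% DMSO/9% aq. sucrose. Overnight cultures were diluted 4000-fold to about 2.5×10^5 cfu/ml inoculum.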

[2] = system: S. aureus (MRSA) ATCC 33591; assay type: cell-based, Staphylococcus aureus; details: for MRSA MIC / S. aureus (MRSA) MIC: ATCC 33591; for MRSA (in vitro activity): Table 9
Procedure, shortened: as §1

[3] = system: Bacillus cereus ATCC 11778; assay type: cell-based
Procedure: (§2) The antimicrobial activity of the peptides was determined using a broth dilution assay essentially as descried in the guidelines of the National Committee for […] (NCCLS) [National Committee for Clinical Laboratory Standards. Methods for dilution antimicrobial susceptibility tests for bacteria that grow aerobically. Fourth edition. Approved Standard (1997). Document M7-A4. […] The microdilution method has the advantages of requiring less amount of peptide for each assay and the possibility of multiple simultaneous inoculations and was used in most studies. Several of the strains of bacteria tested are further described in Table 3.
(§3) Preparation of peptide solutions. Stock peptide solutions were prepared in 5% DMSO in aq. sucrose (9%). Determination of peptide concentrations was done by quantitative HPLC analysis using known concentrations of internal standards and/or by measuring UV absorption of tryptophane-containing peptide solutions in H2O (λ=280 εTrp: 5690). Serial 2-fold dilutions were made in the above DMSO/aq. sucrose (9%) mixture with concentrations ranging approximately 400-2 μg/ml and aliquots were dispensed in test tubes (100 μl) for the macrodilution test or in microtiter plates (20 μl) for the microdilution assays.
(§4) Inoculum preparation. Overnight cultures of different microorganisms grown in suitable media were diluted 4000 times to an approximate inoculum size of 2.5×10^5 cfu/ml.
(§5) Macrodilution method. Macrodilution methods were performed using procedures similar to those described in the National Committee for Clinical Laboratory Standards. Methods for dilution antimicrobial susceptibility tests for bacteria that grow aerobically. Fourth edition. Approved Standard (1997). Document M7-A4. (NCCLS,Villanova, Pa., 1997). Two ml aliquots of the above inoculum were dispensed to test tubes containing different peptide solutions.
(§6) Microdilution method. Microdilution methods were performed using procedures similar to those described in the National Committee for Clinical Laboratory Standards. Methods for dilution antimicrobial susceptibility tests for bacteria that grow aerobically. Fourth edition. Approved Standard (1997). Document M7-A4.

[4] = system: Streptococcus pneumoniae (ATCC 6301); assay type: cell-based
Procedure: as §2, §3, §4, §5, §6

E. coli JM109(DE3) = assay type: cell-based, Escherichia coli; details: JM109
Procedure: as §2, §3, §4, §5, §6

[5] = media a: anti-microbial media-3 (AM-3)

Row | SMILES | RBC Hemolysis (HD50) (murine red blood cells) | VRE MIC [1] | VRE (in vitro activity) ([1]; media a: AM-3) | MRSA MIC [2] | S. aureus (MRSA) MIC [2] | MRSA (in vitro activity) [2, 5] | B. cerius MIC [3] | S. pneum. MIC [4] | E. coli MIC (E. coli JM109(DE3)) | Hemolysis HD50 (murine red blood cells) | VRE (in vitro activity) ([1]; media c: Brain Heart Infusion (BHI)) | MRSA (in vitro activity) ([2]; media b: cation adjusted Meuller Hinton broth (MHBII))
1 | CC(C)C[C@H]1NC(=O)[C@H](Cc2c[nH]c3ccccc23)NC(=O)[C@@H](Cc2c[nH]cn2)NC(=O)[C@H](CCCCN)NC(=O)[C@@H](Cc2c[nH]cn2)NC(=O)[C@H](Cc2c[nH]c3ccccc23)NC(=O)[C@@H](CC(C)C)NC(=O)[C@H](Cc2c[nH]c3ccccc23)NC1=O [SEQ ID NO:21, cyclo-(D-His-Lys-D-His-Trp-D-Leu-Trp-D-Leu-Trp)] (cyclo(K[dH]W[dL]W[dL]W[dH])) | 25 | 16 µg/mL | 16 | 12 µg/mL | 12 µg/mL | 12 | 4 µg/mL | 19 µg/mL | 15 µg/mL |  |  | 
2 | CC(C)C[C@H]1NC(=O)[C@H](Cc2c[nH]c3ccccc23)NC(=O)[C@@H](CCCCN)NC(=O)[C@H](Cc2c[nH]cn2)NC(=O)[C@@H](CCCCN)NC(=O)[C@H](Cc2c[nH]c3ccccc23)NC(=O)[C@@H](CC(C)C)NC(=O)[C@H](Cc2c[nH]c3ccccc23)NC1=O [SEQ ID NO:22, KHKWLWLW] (cyclo([dK]H[dK]W[dL]W[dL]W)) | 30 | 10 µg/mL | 10 | 10 µg/mL | 10 µg/mL | 10 | 8 µg/mL | 8 µg/mL | 80 µg/mL |  |  | 
3 | CC(=O)N[C@H](CCCCN)C(=O)N[C@@H](CCCCN)C(=O)N[C@H](CCCCN)C(=O)N[C@@H](Cc1c[nH]c2ccccc12)C(=O)N[C@H](CC(C)C)C(=O)N[C@@H](Cc1c[nH]c2ccccc12)C(=O)N[C@H](CC(C)C)C(=O)N[C@H](Cc1c[nH]c2ccccc12)C(N)=O [SEQ ID NO:25, Ac-KKKWLWLW-CONH2] (Ac-[dK]K[dK]W[dL]W[dL][dW]-NH2) |  | 100 µg/mL |  | 100 µg/mL | 80 µg/mL |  | 75 µg/mL | 80 µg/mL | 20 µg/mL | 100 µg/mL |  | 
4 | CC(C)C[C@H]1NC(=O)[C@H](CO)NC(=O)[C@@H](CCCCN)NC(=O)[C@H](Cc2c[nH]c3ccccc23)NC(=O)[C@@H](CC(C)C)NC(=O)[C@H](Cc2c[nH]c3ccccc23)NC1=O [SEQ ID NO:28, cyclo-(D-Lys-Ser-D-Leu-Trp-D-Leu-Trp)] (cyclo(S[dL]W[dL]W[dK])) | 90 | 100 µg/mL |  | 100 µg/mL | 75 µg/mL |  | 15 µg/mL | 20 µg/mL | 100 µg/mL |  | 100 | 100
5 | CC(C)C[C@@H]1NC(=O)[C@@H](Cc2c[nH]c3ccccc23)NC(=O)[C@H](CCCCN)NC(=O)[C@@H](CCCNC(=N)N)NC(=O)[C@H](CCCCN)NC(=O)[C@@H](Cc2c[nH]c3ccccc23)NC(=O)[C@H](CC(C)C)NC(=O)[C@@H](Cc2c[nH]cn2)NC1=O [SEQ ID NO:101, [KRKWLHLW]] (cyclo(K[dR]K[dW]L[dH]L[dW])) | 100 | 40 µg/mL | 40 | 40 µg/mL |  | 40 | 80 µg/mL | 80 µg/mL | 12 µg/mL | 100 µg/mL |  | 
6 | CC(C)C[C@H]1NC(=O)[C@H](Cc2c[nH]c3ccccc23)NC(=O)[C@@H](CCCCN)NC(=O)[C@H](CCCNC(=N)N)NC(=O)[C@@H](CCCNC(=N)N)NC(=O)[C@H](Cc2c[nH]c3ccccc23)NC(=O)[C@@H](CC(C)C)NC(=O)[C@H](CCC(=O)O)NC1=O [SEQ ID NO:109, [RRKWLELW]] (cyclo([dR]R[dK]W[dL]E[dL]W)) | 100 | 100 µg/mL | 100 | 80 µg/mL |  | 80 | 195 µg/mL | 100 µg/mL | 40 µg/mL | 100 µg/mL |  | 
7 | CC(C)C[C@H]1NC(=O)[C@H](Cc2c[nH]c3ccccc23)NC(=O)[C@@H](CCCCN)NC(=O)[C@H](CCCNC(=N)N)NC(=O)[C@@H](CCCNC(=N)N)NC(=O)[C@H](Cc2c[nH]c3ccccc23)NC(=O)[C@@H](CC(C)C)NC(=O)[C@H](Cc2c[nH]cn2)NC1=O [SEQ ID NO:110, [RRKWLHLW]] (cyclo([dR]R[dK]W[dL]H[dL]W)) | 100 | 40 µg/mL | 40 | 25 µg/mL |  | 25 | 20 µg/mL | 20 µg/mL | 15 µg/mL | 100 µg/mL |  | 
8 | CC(C)C[C@H]1NC(=O)[C@H](Cc2c[nH]c3ccccc23)NC(=O)[C@@H](CCCCN)NC(=O)[C@H](CCCNC(=N)N)NC(=O)[C@@H](CCCNC(=N)N)NC(=O)[C@H](Cc2c[nH]c3ccccc23)NC(=O)[C@@H](CC(C)C)NC(=O)[C@H](CCCCN)NC1=O [SEQ ID NO:111, [RRKWLKLW]] (cyclo([dR]R[dK]W[dL]K[dL]W)) | 100 | 80 µg/mL | 80 | 12 µg/mL |  | 12 | 23 µg/mL | 25 µg/mL | 6 µg/mL | 100 µg/mL |  | 
9 | CC(C)C[C@H]1NC(=O)[C@H](Cc2c[nH]c3ccccc23)NC(=O)[C@@H](CCCCN)NC(=O)[C@H](CCCNC(=N)N)NC(=O)[C@@H](CCCNC(=N)N)NC(=O)[C@H](Cc2c[nH]c3ccccc23)NC(=O)[C@@H](CC(C)C)NC(=O)[C@H](CO)NC1=O [SEQ ID NO:112, [RRKWLSLW]] (cyclo([dR]R[dK]W[dL]S[dL]W)) | 100 | 50 µg/mL | 50 | 12 µg/mL |  | 12 | 13 µg/mL | 12 µg/mL | 12 µg/mL | 100 µg/mL |  | 
10 | CC(C)C[C@H]1NC(=O)[C@H](Cc2c[nH]c3ccccc23)NC(=O)[C@@H](CCCNC(=N)N)NC(=O)[C@H](CCCNC(=N)N)NC(=O)[C@@H](CC(C)C)NC(=O)[C@H](Cc2c[nH]c3ccccc23)NC1=O [SEQ ID NO:115, [RRWLWL]] (cyclo(R[dR]W[dL]W[dL])) | 90 | 100 µg/mL | 100 | 40 µg/mL |  | 40 | 24 µg/mL | 12 µg/mL | 5 µg/mL | 90 µg/mL |  | 
11 | CC(C)C[C@@H](NC(=O)[C@H](Cc1c[nH]c2ccccc12)NC(=O)[C@@H](CC(C)C)NC(=O)[C@H](Cc1c[nH]c2ccccc12)NC(=O)[C@@H](CCCCN)NC(=O)[C@H](CCCCN)NC(=O)[C@H](N)CCCCN)C(=O)N[C@@H](Cc1c[nH]c2ccccc12)C(N)=O [SEQ ID NO:134, H-KKKWLWLW-NH2] (H-[dK]K[dK]W[dL]W[dL]W-NH2) |  | 100 µg/mL |  | 30 µg/mL |  |  | 19 µg/mL | 80 µg/mL | 3 µg/mL | 100 µg/mL |  | 
12 | CC(C)C[C@@H](NC(=O)[C@H](Cc1c[nH]c2ccccc12)NC(=O)[C@@H](CC(C)C)NC(=O)[C@H](Cc1c[nH]c2ccccc12)NC(=O)[C@@H](CCCCN)NC(=O)[C@H](CCCNC(=N)N)NC(=O)[C@H](N)CCCNC(=N)N)C(=O)N[C@@H](Cc1c[nH]c2ccccc12)C(N)=O [SEQ ID NO:135, H-RRKWLWLW-NH2] (H-[dR]R[dK]W[dL]W[dL]W-NH2) |  | 100 µg/mL |  | 20 µg/mL |  |  | 19 µg/mL | 40 µg/mL | 4 µg/mL | 100 µg/mL |  | 
13 | CC(=O)N[C@H](CCCNC(=N)N)C(=O)N[C@@H](CCCNC(=N)N)C(=O)N[C@H](CCCCN)C(=O)N[C@@H](Cc1c[nH]c2ccccc12)C(=O)N[C@H](CC(C)C)C(=O)N[C@@H](Cc1c[nH]c2ccccc12)C(=O)N[C@H](CC(C)C)C(=O)N[C@@H](Cc1c[nH]c2ccccc12)C(N)=O [SEQ ID NO:136, Ac-RRKWLWLW-NH2] (Ac-[dR]R[dK]W[dL]W[dL]W-NH2) |  | 100 µg/mL |  | 70 µg/mL |  |  | 22 µg/mL | 40 µg/mL | 6 µg/mL | 100 µg/mL |  | 
